Source: PubChem BioAssay AID248 (DTP/NCI, 2004)
“And” between values parts separate entries of the source, which are not always exact repeats. Equal values may be shown once. Toxic doses and inconclusive results are not listed.

Tested on: L1210 leukemia ip in BDF1 mice, survival T/C
Experiment: NCI In Vivo Anticancer Drug Screen. Data for tumor model L1210 Leukemia (intraperitoneal) in B6D2F1 (BDF1) mice
Conditions: endpoint: mean survival time, higher = longer survival
Method in brief: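 Value reflects the ratio of survival in compound-treated mice to survival in vehicle-treated controls, with both groups carrying the same transplanted tumor.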

[1] = dose: 100.0 mg/kg/injection, schedule: Q01DX001 (ip), vehicle: saline
[2] = dose: 200.0 mg/kg/injection, schedule: Q01DX001 (ip), vehicle: saline
[3] = dose: 400.0 mg/kg/injection, schedule: Q01DX001 (ip), vehicle: saline
[4] = dose: 100.0 mg/kg/injection, schedule: Q01DX009 (ip), vehicle: Klucel (hydroxypropylcellulose) (HPC)
[5] = dose: 100.0 mg/kg/injection, schedule: Q04DX003 (ip), vehicle: Klucel (hydroxypropylcellulose) (HPC)
[6] = dose: 200.0 mg/kg/injection, schedule: Q01DX009 (ip), vehicle: Klucel (hydroxypropylcellulose) (HPC)
[7] = dose: 200.0 mg/kg/injection, schedule: Q04DX003 (ip), vehicle: Klucel (hydroxypropylcellulose) (HPC)
[8] = dose: 400.0 mg/kg/injection, schedule: Q04DX003 (ip), vehicle: Klucel (hydroxypropylcellulose) (HPC)
[9] = dose: 100.0 mg/kg/injection, schedule: Q01DX009 (ip), vehicle: saline with Tween-80
[10] = dose: 100.0 mg/kg/injection, schedule: Q04DX003 (ip), vehicle: saline with Tween-80
[11] = dose: 200.0 mg/kg/injection, schedule: Q01DX009 (ip), vehicle: saline with Tween-80
[12] = dose: 200.0 mg/kg/injection, schedule: Q04DX003 (ip), vehicle: saline with Tween-80
[13] = dose: 400.0 mg/kg/injection, schedule: Q04DX003 (ip), vehicle: saline with Tween-80

CSc1nc(=O)[nH]nc1SCc1ccccc1
T/C (dose: 22.0 mg/kg/injection, schedule: Q01DX015 (ip), vehicle: carboxymethylcellulose (CMC)): 95 % of control | T/C (dose: 33.0 mg/kg/injection, schedule: Q01DX015 (ip), vehicle: carboxymethylcellulose (CMC)): 95 % of control | T/C (dose: 44.0 mg/kg/injection, schedule: Q01DX001 (ip), vehicle: carboxymethylcellulose (CMC)): 100 % of control and 103 % of control | T/C (dose: 50.0 mg/kg/injection, schedule: Q01DX015 (ip), vehicle: carboxymethylcellulose (CMC)): 92 % of control | T/C (dose: 66.0 mg/kg/injection, schedule: Q01DX001 (ip), vehicle: carboxymethylcellulose (CMC)): 98 % of control and 102 % of control | T/C (dose: 75.0 mg/kg/injection, schedule: Q01DX009 (ip), vehicle: saline): 103 % of control | T/C (dose: 75.0 mg/kg/injection, schedule: Q01DX015 (ip), vehicle: carboxymethylcellulose (CMC)): 87 % of control | T/C (dose: 100.0 mg/kg/injection, schedule: Q01DX001 (ip), vehicle: carboxymethylcellulose (CMC)): 95 % of control and 97 % of control and 284 % of control | T/C [1]: 100 % of control | T/C (dose: 150.0 mg/kg/injection, schedule: Q01DX001 (ip), vehicle: carboxymethylcellulose (CMC)): 96 % of control and 89 % of control | T/C (dose: 150.0 mg/kg/injection, schedule: Q01DX009 (ip), vehicle: saline): 95 % of control | T/C [2]: 97 % of control | T/C (dose: 300.0 mg/kg/injection, schedule: Q01DX009 (ip), vehicle: saline): 97 % of control | T/C (dose: 400.0 mg/kg/injection, schedule: Q01DX001 (ip), vehicle: carboxymethylcellulose (CMC)): 160 % of control | T/C [3]: 95 % of control

CN(C)c1ccc(/C=N/NC(=O)C(O)C(O)C(O)C(O)CO)c(Cl)c1 (stereo not given)
T/C (dose: 100.0 mg/kg/injection, schedule: Q04DX002 (ip), vehicle: saline with Tween-80): 98 % of control | T/C (dose: 200.0 mg/kg/injection, schedule: Q04DX002 (ip), vehicle: saline with Tween-80): 91 % of control | T/C (dose: 400.0 mg/kg/injection, schedule: Q04DX002 (ip), vehicle: saline with Tween-80): 88 % of control

CCOP(=O)(OCC)C1=C(CC)CC1
T/C (dose: 9.5 mg/kg/injection, schedule: Q01DX001 (ip), vehicle: other): 109 % of control | T/C (dose: 19.0 mg/kg/injection, schedule: Q01DX001 (ip), vehicle: other): 111 % of control | T/C (dose: 38.0 mg/kg/injection, schedule: Q01DX001 (ip), vehicle: other): 106 % of control

CN(C)C=NCC1CCCO1 (stereo not given)
T/C [1]: 97 % of control | T/C [2]: 90 % of control | T/C [3]: 97 % of control

CSc1ncnc2c1nc[n]2[Sn]([c]1ccccc1)([c]1ccccc1)[c]1ccccc1.CSc1ncnc2nc[nH]c12
T/C (dose: 5.0 mg/kg/injection, schedule: Q01DX001 (ip), vehicle: other): 108 % of control | T/C (dose: 10.0 mg/kg/injection, schedule: Q01DX001 (ip), vehicle: other): 104 % of control | T/C (dose: 20.0 mg/kg/injection, schedule: Q01DX001 (ip), vehicle: other): 111 % of control

NN=C1CCC(=NN)CC1
T/C (dose: 25.0 mg/kg/injection, schedule: Q01DX009 (ip), vehicle: water): 101 % of control | T/C (dose: 25.0 mg/kg/injection, schedule: Q04DX003 (ip), vehicle: water): 109 % of control | T/C (dose: 50.0 mg/kg/injection, schedule: Q01DX009 (ip), vehicle: water): 114 % of control | T/C (dose: 50.0 mg/kg/injection, schedule: Q04DX003 (ip), vehicle: water): 109 % of control | T/C (dose: 100.0 mg/kg/injection, schedule: Q04DX003 (ip), vehicle: water): 114 % of control and 124 % of control

COc1ccc(C)cc1NC(=S)NC(=O)c1cc([N+](=O)[O-])cc([N+](=O)[O-])c1
T/C [4]: 97 % of control | T/C [5]: 95 % of control | T/C [6]: 90 % of control | T/C [7]: 100 % of control | T/C (dose: 400.0 mg/kg/injection, schedule: Q01DX009 (ip), vehicle: Klucel (hydroxypropylcellulose) (HPC)): 95 % of control | T/C [8]: 97 % of control

C#CCSC(=S)NNc1ccccc1
T/C [9]: 95 % of control | T/C [10]: 101 % of control | T/C [11]: 97 % of control | T/C [12]: 97 % of control | T/C [13]: 93 % of control

CCOC(=O)c1ccc(C(=O)O)[n+]([O-])c1
T/C [4]: 100 % of control | T/C [5]: 92 % of control | T/C [6]: 95 % of control | T/C [7]: 100 % of control | T/C [8]: 96 % of control

CC1CCC2CON(C(C)(C)C)C2C1 (stereo not given)
T/C (dose: 50.0 mg/kg/injection, schedule: Q01DX009 (ip), vehicle: saline with Tween-80): 106 % of control | T/C [9]: 107 % of control | T/C [10]: 103 % of control | T/C [12]: 97 % of control and 101 % of control | T/C [13]: 94 % of control

O=C(CC(c1ccccc1)N1CCCCC1)c1ccccc1 (stereo not given)
T/C (dose: 50.0 mg/kg/injection, schedule: Q01DX001 (ip), vehicle: saline): 97 % of control | T/C [1]: 100 % of control | T/C [2]: 94 % of control | T/C [3]: 97 % of control

CN(C)S(=O)(=O)c1ccc(NC(=O)CI)cc1
T/C (dose: 12.0 mg/kg/injection, schedule: Q01DX001 (ip), vehicle: other): 95 % of control | T/C (dose: 12.5 mg/kg/injection, schedule: Q01DX009 (ip), vehicle: saline with Tween-80): 95 % of control | T/C (dose: 12.5 mg/kg/injection, schedule: Q04DX003 (ip), vehicle: other): 95 % of control | T/C (dose: 25.0 mg/kg/injection, schedule: Q01DX001 (ip), vehicle: other): 105 % of control | T/C (dose: 25.0 mg/kg/injection, schedule: Q01DX009 (ip), vehicle: saline with Tween-80): 106 % of control | T/C (dose: 25.0 mg/kg/injection, schedule: Q04DX003 (ip), vehicle: other): 101 % of control | T/C (dose: 50.0 mg/kg/injection, schedule: Q01DX001 (ip), vehicle: other): 100 % of control | T/C (dose: 50.0 mg/kg/injection, schedule: Q04DX003 (ip), vehicle: other): 96 % of control

CCC(C(=O)NC(=O)NO)c1ccccc1 (stereo not given)
T/C (dose: 100.0 mg/kg/injection, schedule: Q01DX Z (ip), vehicle: carboxymethylcellulose (CMC)): 94 % of control | T/C (dose: 300.0 mg/kg/injection, schedule: Q01DX Z (ip), vehicle: carboxymethylcellulose (CMC)): 105 % of control | T/C (dose: 400.0 mg/kg/injection, schedule: Q01DX Z (ip), vehicle: carboxymethylcellulose (CMC)): 90 % of control

S=C(NCc1ccccc1)[S][Sb]([S]C(=S)NCc1ccccc1)[c]1ccccc1
T/C (dose: 5.0 mg/kg/injection, schedule: Q01DX001 (ip), vehicle: saline): 88 % of control | T/C (dose: 10.0 mg/kg/injection, schedule: Q01DX001 (ip), vehicle: saline): 109 % of control

COC(=O)c1cccc(C)c1NC(=O)NCCCl
T/C [5]: 96 % of control | T/C [7]: 96 % of control | T/C [8]: 94 % of control

CC(C)c1cccc2ccccc12
T/C (dose: 100.0 mg/kg/injection, schedule: Q04DX003 (ip), vehicle: acetone): 95 % of control | T/C (dose: 200.0 mg/kg/injection, schedule: Q04DX003 (ip), vehicle: acetone): 88 % of control

Cc1ccc([N+](=O)[O-])cc1NC(=O)COc1cc(Cl)c(Cl)cc1Cl
T/C [9]: 89 % of control | T/C [11]: 94 % of control | T/C (dose: 400.0 mg/kg/injection, schedule: Q01DX009 (ip), vehicle: saline with Tween-80): 98 % of control

CN(C)c1ccc2c(c1)N=[N+]([O-])c1cc(N(C)C)ccc1C2
T/C (dose: 100.0 mg/kg/injection, schedule: Q01DX001 (ip), vehicle: Klucel (hydroxypropylcellulose) (HPC)): 97 % of control | T/C (dose: 200.0 mg/kg/injection, schedule: Q01DX001 (ip), vehicle: Klucel (hydroxypropylcellulose) (HPC)): 97 % of control | T/C (dose: 400.0 mg/kg/injection, schedule: Q01DX001 (ip), vehicle: Klucel (hydroxypropylcellulose) (HPC)): 89 % of control

CCC1CCC2C(CCC3(N(C)C)CCC(OC)C(OC)C23)C1 (stereo not given)
T/C (dose: 3.13 mg/kg/injection, schedule: Q01DX001 (ip), vehicle: saline with Tween-80): 98 % of control | T/C (dose: 6.25 mg/kg/injection, schedule: Q01DX001 (ip), vehicle: saline with Tween-80): 96 % of control | T/C (dose: 12.5 mg/kg/injection, schedule: Q01DX001 (ip), vehicle: saline with Tween-80): 100 % of control

O=C(Cl)c1cccc2c([N+](=O)[O-])cccc12
T/C (dose: 22.0 mg/kg/injection, schedule: Q01DX001 (ip), vehicle: other): 96 % of control and 100 % of control | T/C (dose: 33.0 mg/kg/injection, schedule: Q01DX001 (ip), vehicle: other): 103 % of control and 105 % of control | T/C (dose: 75.0 mg/kg/injection, schedule: Q01DX001 (ip), vehicle: other): 103 % of control and 107 % of control | T/C (dose: 100.0 mg/kg/injection, schedule: Q01DX001 (ip), vehicle: other): 97 % of control | T/C (dose: 200.0 mg/kg/injection, schedule: Q01DX001 (ip), vehicle: other): 101 % of control | T/C (dose: 400.0 mg/kg/injection, schedule: Q01DX001 (ip), vehicle: other): 106 % of control
